Measured values from patent publication US6649745B2 (priority 2002, dated 2003).
Read-outs that look alike come from different tables or passages of the source. Marks after values point to notes of the source that are not given here.

Columns and labels:
immunecompromised mice [1] = type: in vivo; settings: for DTH mean ± S.E.: n=12
immunecompromised mice [2] = type: in vivo; settings: for Antibody titer % change compared to control / Antibody titer mean ± S.E.: titre on 5th day; for Antibody titer mean ± S.E.: n=12
[3] = 0.0006 mg/kg p.o., day 0-4, immunecompromised mice, foot thickness on 5th day
[4] = 0.0125 mg/kg p.o., day 0-4, immunecompromised mice, foot thickness on 5th day
[5] = oral, dose levels 0.0062-0.0125 mg Kg^-1, immunecompromised experimental animals
[6] = 0.0006 mg/kg p.o., day 0-4, immunecompromised mice
[7] = 0.0125 mg/kg p.o., day 0-4, immunecompromised mice
[8] = 2.5 mg/kg p.o., day 0-4, immunecompromised mice, foot thickness on 5th day
[9] = 2.5 mg/kg p.o., day 0-4, immunecompromised mice
[10] = 250 mg/kg p.o., day 0-4, SRBC-sensitized mice

3-0-[α-L-rhamnopyranosyl-(1→2)-α-L-rhamnopyranosyl-(1→4)-0-β-D-glucopyranosyl]-25(S)-5β-spirostan-3β-ol [AR-Iv]
DTH % change compared to control (immunecompromised mice [1]; [3]): 78*** % | DTH mean ± S.E. (immunecompromised mice [1]; [3]): 0.80 ± 0.14 | DTH % change compared to control (immunecompromised mice [1]; [4]): 102*** % | DTH mean ± S.E. (immunecompromised mice [1]; [4]): 0.91 ± 0.42 | enhancement of cell-mediated immune response (immunecompromised mice [1]; [5]): 77.77-102.22% | Antibody titer % change compared to control (immunecompromised mice [2]; [6]): 56** % | Antibody titer mean ± S.E. (immunecompromised mice [2]; [6]): 5.60 ± 0.33 | Antibody titer % change compared to control (immunecompromised mice [2]; [7]): 78*** % | Antibody titer mean ± S.E. (immunecompromised mice [2]; [7]): 6.41 ± 0.16 | potentiation of antibody synthesis (immunecompromised mice [2]; [5]): 55.55-69.44%

c1ccc([C@H]2CN3CCSC3=N2)cc1 [LEV, Levamisole, reference compound]
DTH % change compared to control (immunecompromised mice [1]; [8]): 140*** % | DTH mean ± S.E. (immunecompromised mice [1]; [8]): 1.08 ± 0.14 | Antibody titer % change compared to control (immunecompromised mice [2]; [9]): 89*** % | Antibody titer mean ± S.E. (immunecompromised mice [2]; [9]): 6.80 ± 0.30

Cyclodextrin [reference compound]
DTH mean ± S.E. (immunecompromised mice [1]; 250 mg/kg p.o., day 0-4, SRBC challenge in footpad on 4th day, foot thickness on 5th day): 0.45 ± 0.24 | DTH % change compared to control (immunecompromised mice [1]; 250 mg/kg p.o., day 0-4, foot thickness on 5th day): 23* % | Antibody titer % change compared to control (immunecompromised mice [2]; [10]): 45* % | Antibody titer mean ± S.E. (immunecompromised mice [2]; [10]): 3.60 ± 0.33
